Test results as given in paper PMC12006031, “Inhibitory Effect of Whey Protein‐Derived Peptide Leu‐Asp‐Gln‐Trp on Xanthine Oxidase” (Food Science & Nutrition, 2025).
Read-outs that look alike come from different tables or passages of the source. Residues, ends and D or L forms follow the SMILES beside them. No end group written: not given here.

Tests used:
XO from bovine milk [1] = target: T1, XO from bovine milk (Bos taurus, UniProt P80457); assay: XO inhibitory activity by absorptiometry (absorbance at 290 nm, microplate reader); format: biochemical; settings: for Suppression of the absorbance increase / enzymatic reaction compared with control (relative absorbance): 290 nm every 5 min for 30 min, Figure 2; for Concentration dependence of XO inhibitory activity / Concentration with significant XO inhibition: absorptiometry; for Concentration with significant XO inhibition: vs. control, p < 0.01, one-way ANOVA, Tukey-Kramer
T1 construct: XO from bovine milk and xanthine were purchased from Sigma‐Aldrich Corp. (MO, USA); purchased Sigma‐Aldrich Corp. (MO, USA); host or cells: bovine milk (natural source)
T1 sequence (P80457 whole entry): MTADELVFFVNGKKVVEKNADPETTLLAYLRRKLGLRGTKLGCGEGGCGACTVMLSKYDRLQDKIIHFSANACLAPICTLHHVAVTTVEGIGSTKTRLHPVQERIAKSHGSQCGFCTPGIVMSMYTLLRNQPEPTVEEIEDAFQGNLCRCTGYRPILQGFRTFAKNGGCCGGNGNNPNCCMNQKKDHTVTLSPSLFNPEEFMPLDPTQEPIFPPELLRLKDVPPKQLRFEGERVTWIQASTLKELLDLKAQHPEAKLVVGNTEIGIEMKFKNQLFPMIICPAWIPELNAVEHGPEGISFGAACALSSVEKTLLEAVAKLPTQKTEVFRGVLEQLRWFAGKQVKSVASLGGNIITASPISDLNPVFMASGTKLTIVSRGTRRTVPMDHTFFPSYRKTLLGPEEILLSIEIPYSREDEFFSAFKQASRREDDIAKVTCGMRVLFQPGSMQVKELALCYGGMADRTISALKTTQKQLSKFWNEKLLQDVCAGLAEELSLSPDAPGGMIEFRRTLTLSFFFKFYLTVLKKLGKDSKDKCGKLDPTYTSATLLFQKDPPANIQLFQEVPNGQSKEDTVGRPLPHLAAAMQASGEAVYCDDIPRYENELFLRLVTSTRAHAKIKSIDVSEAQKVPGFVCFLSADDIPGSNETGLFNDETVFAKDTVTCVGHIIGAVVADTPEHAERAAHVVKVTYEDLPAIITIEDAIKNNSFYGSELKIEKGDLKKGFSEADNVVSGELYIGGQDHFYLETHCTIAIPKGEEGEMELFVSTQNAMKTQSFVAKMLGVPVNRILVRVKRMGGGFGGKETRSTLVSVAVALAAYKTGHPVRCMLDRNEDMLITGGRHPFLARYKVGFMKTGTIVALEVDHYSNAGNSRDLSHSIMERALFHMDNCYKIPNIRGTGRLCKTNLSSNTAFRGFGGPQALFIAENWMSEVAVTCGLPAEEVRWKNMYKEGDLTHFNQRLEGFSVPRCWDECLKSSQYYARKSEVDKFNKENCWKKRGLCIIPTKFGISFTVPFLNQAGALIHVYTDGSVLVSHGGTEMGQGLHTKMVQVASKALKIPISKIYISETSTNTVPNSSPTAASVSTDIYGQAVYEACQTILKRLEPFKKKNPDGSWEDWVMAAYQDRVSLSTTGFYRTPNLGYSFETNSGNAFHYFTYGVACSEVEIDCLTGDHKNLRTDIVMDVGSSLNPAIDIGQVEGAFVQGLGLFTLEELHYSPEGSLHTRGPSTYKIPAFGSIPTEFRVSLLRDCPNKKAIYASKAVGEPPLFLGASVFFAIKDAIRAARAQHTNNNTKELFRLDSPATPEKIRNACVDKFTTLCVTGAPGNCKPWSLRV
Procedure: (§1) Tryptophan and leucine were obtained from Kanto Chemical Co. Ltd. (Tokyo, Japan). The evaluation samples such as peptides and amino acids, and allopurinol (FUJIFILM Wako Pure Chemical Corp., Tokyo, Japan) as a positive control for the evaluation method, were suspended in 0.1 M phosphate buffer pH 7.2 (FUJIFILM Wako Pure Chemical Corp., Tokyo, Japan) containing 0.1 M sodium chloride. The samples were obtained for the assay after sonication for 10 min. XO from bovine milk and xanthine were purchased from Sigma‐Aldrich Corp. (MO, USA). […] The xanthine solution was prepared by diluting it with buffer at a ratio of 1:10.
2.2 Enzymatic Reaction and Monitoring of Absorbance Using a Microplate Reader
(§2) Briefly, the samples (e.g., LDQW) or allopurinol were mixed with the XO solution (final concentration: 25 U/L). A mixture added to the buffer instead of the sample was analyzed as a control. […] The sample, XO solution, and xanthine solution were reacted in a 2:1:1 ratio. The assay was performed in triplicate. The XO inhibitory activity was calculated using the following equation: XOinhibitory activity%=1−AbS30min−AbS0min/AbC30min−AbC0min×100
AbS30min : Absorbance of the sample at 30 min.
AbS0min : Absorbance of the sample at 0 min.
AbC30min : Absorbance of the control at 30 min.
AbC0min : Absorbance of the control at 0 min.
(§3) All experiments were performed in triplicate, with data indicated as mean ± standard deviation (SD). […] One‐way analysis of variance (ANOVA) was used for parametric analyses, followed by the Tukey–Kramer test. p values of < 0.05 were considered statistically significant.

XO from bovine milk [2] = target: T1, XO from bovine milk; assay: XO inhibitory activity by LC-MS/MS quantification of uric acid; format: biochemical; settings: for XO inhibitory activity (inhibition ratio): 20 mM, UA by LC-MS/MS (PRM m/z 169.03/70.04) after 30 min, XO 25 U/L, xanthine 0.42 mM, 0.1 M phosphate buffer pH 7.2 containing 0.1 M sodium chloride, mean ± SD; for XO inhibitory activity (inhibition ratio) / Concentration with significant XO inhibition / Significance of XO inhibition at any concentration: n = 3; for Concentration dependence of XO inhibition: Figure 5 or Figure 6; for Concentration with significant XO inhibition: vs. control, Figure 5; for Concentration with significant XO inhibition / Significance of XO inhibition at any concentration: one-way ANOVA, Tukey-Kramer; for Significance of XO inhibition at any concentration: tryptophan Figure 5, leucine Figure 6
Procedure: as §1, §2
2.3 Determination of XO Inhibitory Activity Using LC–MS/MS
To halt the enzymatic reaction, an equal volume of 1 M HCl, purchased from Kanto Chemical Co. Ltd. (Tokyo, Japan), was promptly added to the mixture after the absorbance was monitored for 30 min (Figure 1A). The mixture was then diluted 50‐fold with water containing 0.2% (v/v) formic acid (FA), which was purchased from Kanto Chemical Co. Ltd. (Tokyo, Japan), to prepare analytical samples for LC–MS/MS. UA in the analytical samples was measured using a Vanquish Ultra‐High‐Performance LC system coupled with a Vanquish variable wavelength detector VF‐D40 and a Q Exactive Focus (Thermo Fisher Scientific Inc., MA, USA). UA in the analytical samples was separated using an XBridge Peptide BEH C18 Column (2.1 mm i.d. × 250 mm, 3.5 μm, Waters Inc., MA, USA).
UA separation was achieved using 0.1% (v/v) FA in water (solvent A) and 0.1% FA in methanol (solvent B, Kanto Chemical Co. Ltd., Tokyo, Japan) with the following gradient over 22 min: 2% B for 5 min, increased from 2% to 10% B over 3 min, from 10% to 80% B over 2 min, held at 80% B for 2 min, decreased from 80% to 2% B over 0.1 min and held at 2% B for 10 min. The column temperature and flow rate were maintained at 40°C and 0.2 mL/min, respectively. During separation, the absorbance was monitored at 290 nm.
MS detection was performed in positive ion mode. […] The peak area detected at a retention time of 4.3 min was analyzed using Thermo Scientific Xcalibur. UA was quantified using the absolute calibration curve method, which was constructed from the peak areas of UA at various concentrations. XO inhibitory activity was calculated as [1 − UAs/UAc] × 100%, where UAs and UAc represent the amount of UA in the samples and control, respectively.
as §3

xanthine oxidase (XO) = settings: cited from earlier work; for IC50: literature value, ref He et al. [2019], Mao et al. [2023], Xu, Liu, et al. [2024], read-out: IC50 (XO inhibition)
[3] = system: rat model of hyperuricemia; settings: orally administered, ref He et al. [2024], Qi et al. [2022a]; cited from earlier work
Excerpt: There have been numerous reports on bioactive peptides with XO inhibitory activity.

[4] = system: rat model of hyperuricemia; settings: ref Qi et al. [2023], [2024]; cited from earlier work
Excerpt: As study limitations, the mechanism for alleviating hyperuricemia is known to involve not only XO activity inhibition but also other factors, such as UA excretion promotion and UA reabsorption inhibition (Cicero et al. [2021]).

[5] = 20 mM, absorbance at 290 nm, 0-30 min, XO 25 U/L, xanthine 0.42 mM, 0.1 M phosphate buffer pH 7.2 containing 0.1 M sodium chloride, mean ± SD, n = 3, Figure 3
[6] = experiment of Figure 6 (DQW fragment)
[7] = 1-20 mM tested, n = 3, Figure 3

Molecule: CC(C)C[C@H](N)C(=O)N[C@@H](CC(=O)O)C(=O)N[C@@H](CCC(N)=O)C(=O)N[C@@H](Cc1c[nH]c2ccccc12)C(=O)O [LDQW, Leu‐Asp‐Gln‐Trp] (H-LDQW-OH)
- inhibition at 20000 µM (XO from bovine milk [1]; [5]): 96.4%
- XO inhibitory activity (inhibition ratio) (XO from bovine milk [2]; experiment of Figure 5): 58.0% ± 2.8
- XO inhibitory activity (inhibition ratio) (XO from bovine milk [2]; [6]): 57.9% ± 3.2

Molecule: Oc1ncnc2[nH]ncc12 [allopurinol]
- Suppression of the absorbance increase / enzymatic reaction compared with control (relative absorbance) (XO from bovine milk [1]; n = 3): suppressed the increase in absorbance in a concentration‐dependent manner
- Concentration dependence of XO inhibitory activity (XO from bovine milk [1]; Figure 3): increased with rising concentrations in a concentration‐dependent manner
- Concentration with significant XO inhibition (XO from bovine milk [1]; allopurinol positive control, 1-50 μM tested, n = 3, Figure 3): ≥ 0.001 mM
- Concentration dependence of XO inhibition (XO from bovine milk [2]; LC-MS/MS): significantly inhibited XO activity in a concentration‐dependent manner
- Concentration with significant XO inhibition (XO from bovine milk [2]; allopurinol positive control, LC-MS/MS): ≥ 1 µM
- XO inhibition reported earlier (xanthine oxidase (XO); ref Klein et al. [1996]): reported to have XO inhibitory activity

Molecule: CC(C)C[C@H](N)C(=O)O [leucine]
- Significance of XO inhibition at any concentration (XO from bovine milk [2]; LC-MS/MS): no significant XO inhibition was observed

Molecule: N[C@@H](Cc1c[nH]c2ccccc12)C(=O)O [tryptophan]
- inhibition at 20000 µM (XO from bovine milk [1]; [5]): 95.2%
- Suppression of the absorbance increase / enzymatic reaction compared with control (relative absorbance) (XO from bovine milk [1]; n = 3): the enzymatic reaction by XO was suppressed compared with the control
- Concentration dependence of XO inhibitory activity (XO from bovine milk [1]; Figure 3): increased with rising concentrations in a concentration‐dependent manner
- Concentration with significant XO inhibition (XO from bovine milk [1]; [7]): ≥ 1 mM
- XO inhibitory activity (inhibition ratio) (XO from bovine milk [2]; experiment of Figure 5): 4.4% ± 3.7
- Significance of XO inhibition at any concentration (XO from bovine milk [2]; LC-MS/MS): did not exhibit significant XO inhibition at any concentration

Molecule: Ala‐Leu
- IC50 (xanthine oxidase (XO)): 34.5 mM

Molecule: Ala‐Leu‐Pro‐Met [ALPM, milk protein-derived peptide used for comparison]
- XO inhibitory activity (XO from bovine milk [1]; [5]): 25.2% ± 1.9
- Suppression of the absorbance increase / enzymatic reaction compared with control (relative absorbance) (XO from bovine milk [1]; n = 3): suppressed this increase compared with the control
- Concentration with significant XO inhibition (XO from bovine milk [1]; [7]): 20 mM
- XO inhibitory activity (inhibition ratio) (XO from bovine milk [2]; experiment of Figure 5): 45.0% ± 1.0
- Concentration dependence of XO inhibition (XO from bovine milk [2]; LC-MS/MS): increase in the inhibition ratio in a concentration‐dependent manner
- Concentration with significant XO inhibition (XO from bovine milk [2]; LC-MS/MS): ≥ 5000 µM
- Renal dysfunction [3]: improve renal dysfunction
- Serum uric acid (SUA) levels [3]: reduce SUA levels
- XO inhibition reported earlier (xanthine oxidase (XO); ref Qi et al. [2022a], [2022b]): inhibit XO

Molecule: Ala‐Met
- IC50 (xanthine oxidase (XO)): 40.5 mM

Molecule: Asp‐Gln‐Trp [DQW]
- XO inhibitory activity (inhibition ratio) (XO from bovine milk [2]; [6]): 48.4% ± 8.5
- XO inhibitory activity in comparison with another peptide (XO from bovine milk [2]; LC-MS/MS): comparable to that of LDQW
- Concentration dependence of XO inhibition (XO from bovine milk [2]; LC-MS/MS): significantly inhibited XO activity in a concentration‐dependent manner

Molecule: Gly‐Leu
- IC50 (xanthine oxidase (XO)): 10.2 mM

Molecule: Leu‐Leu‐Trp [LLW]
- Expression of genes related to UA synthesis in the liver [4]: reduce the expression of genes related to UA synthesis in the liver
- Gene expression for UA excretion in the kidneys [4]: enhance gene expression for UA excretion in the kidneys
- XO inhibition reported earlier (xanthine oxidase (XO); ref Qi et al. [2023], [2024]): known for their XO inhibitory activities

Molecule: Phe‐His
- IC50 (xanthine oxidase (XO)): 25.7 mM

Molecule: Pro‐Glu‐Trp [PEW, peptide derived from milk proteins]
- Expression of genes related to UA synthesis in the liver [4]: reduce the expression of genes related to UA synthesis in the liver
- Gene expression for UA excretion in the kidneys [4]: enhance gene expression for UA excretion in the kidneys
- XO inhibition reported earlier (xanthine oxidase (XO); ref Qi et al. [2022a], [2022b]): inhibit XO
- XO inhibition reported earlier (xanthine oxidase (XO); ref Qi et al. [2023], [2024]): known for their XO inhibitory activities

Molecule: Pro‐Met
- IC50 (xanthine oxidase (XO)): 23.8 mM

Molecule: YNITGW
- IC50 (xanthine oxidase (XO)): 9.8 mM
